Results: patent US20260286288A1, “REGULATED CELLS EXPRESSING CYTOKINES” (William Marsh Rice University, priority 2023, published 2026)
Entries after “also recorded” stand apart in the source; their conditions may differ.

Key:
[1] = test system: IL2-ks cells (cells expressing IL-2 and an inducible kill switch); assay: Bright field imaging of IL2-ks cells after AP1903; format: cell-based; details: 100 nM AP1903, 18 hours after administration
Excerpt: (§1) Images were acquired at 20× magnification.

[2] = test system: IL2-ks cells (cells expressing IL-2 and an inducible kill switch); assay: IL-2 ELISA of IL2-ks cell supernatant after AP1903; format: cell-based
Method: FIG. 2 is a graph of mIL-2 concentration (pg/mL) of the two cell populations of FIG. 1, the first population (right) not having been exposed to AP1903 and the second population (left) less than 24 hours after exposure to 100 nM AP1903.
FIG. 7A and FIG. 7B are graphs of IL-2 concentration (pg/mL) over time of four alginate-encapsulated, cytokine-producing, kill switch-inducible cell populations exposed to 0 nM, 10 nM, 100 nM, and 1000 nM of small molecule kill switch inducer AP1903.
as §1

[3] = test system: Encapsulated IL2-ks cells; assay: mIL-2 ELISA of capsule supernatant of encapsulated IL2-ks cells after AP1903; format: cell-based; details: 10 nM, 100 nM or 1000 nM AP1903, alginate-encapsulated cells
Method: FIG. 3A and FIG. 3B are graphs of mIL-2 concentration (pg/mL) over time of four alginate-encapsulated, cytokine-producing, kill switch-inducible cell populations exposed to 0 nM, 10 nM, 100 nM, and 1000 nM of small molecule kill switch inducer AP1903.
as §1

[4] = test system: encapsulated IL12-ks cells; assay: AP1903-induced encapsulated cell death of mIL12 ks capsules in mice; format: in vivo
Excerpt: FIG. 9A is an in vitro assay. […] FIG. 9B is an in vitro assay. […] FIG. 9C is an in vivo assay.

RPE-mIL12-ks cells [5] = details: in vitro and in vivo assays of FIGS. 9A-C
Method: (§2) Images of RPE-mIL 12-ks cells via the microscope 24 hours after 0 nM (left) or 10 nM AP1903 (right) administration. […] Cell viability measured after lysing encapsulated RPE-IL12-ks via cell counter 24 hours post administration (n=3).
(§3) FIG. 9A is series of two annotated photographs of two populations of cytokine-producing, kill switch-inducible cells, the first population (left) not having been exposed to small molecule kill switch inducer AP1903, and the second population (right) 24 hours after exposure to 10 nM AP1903. FIG. 9B is the administration of different concentrations of CID (AP1903) in mIL 12 ks cells in a 24-well plate for 24 hours. […] FIG. 9C is the validation of AP1903 treatment in inducing encapsulated cell death in mice. The inventors implant 50 mIL12 ks capsules in each mouse and administrate half of the mice with AP1903 right after implantation surgeries. Euthanize all the mice after 24 hours, retrieve capsules and lysis capsules for measuring cell viability.

RPE-mIL12-ks cells [6] = assay: cells; details: 24 h, read-out: cell death
Method: as §2, §3

[7] = test system: encapsulated IL2-ks cells; assay: Viability of explanted IL2-ks capsules with or without intraperitoneal AP1903

## CC[C@H](C(=O)N1CCCC[C@H]1C(=O)O[C@H](CCc1ccc(OC)c(OC)c1)c1cccc(OCC(=O)NCCNC(=O)COc2cccc([C@@H](CCc3ccc(OC)c(OC)c3)OC(=O)[C@@H]3CCCCN3C(=O)[C@@H](CC)c3cc(OC)c(OC)c(OC)c3)c2)c1)c1cc(OC)c(OC)c(OC)c1 [AP1903]
[1]
  cell death (bright field images): induced cell death
[2]; 10 nM, 100 nM or 1000 nM AP1903, 3 hours after administration
  IL-2 concentration from cell supernatant: significant reduction in cytokine production
[2]; 100 nM AP1903, 18 hours after administration, n=3 wells
  mIL-2 concentration from cell supernatant: significant reduction in cytokine production; also recorded: decreased mIL-2 production
[3]
  mIL-2 concentration over time from capsule supernatant: IL-2 production was reduced; also recorded: decreased mIL-2 production
[4]; 0.4 mg/mL AP1903, healthy mice, n=3
  time for encapsulated IL12-ks cells to respond to AP1903: less than 24 hours
[4]; AP1903 right after implantation of 50 capsules, 24 hours, compared to control mice
  cell viability of retrieved capsules: decreased cell viability
RPE-mIL12-ks cells [5]
  induction of cell death in RPE-mIL 12-ks cells: highly effective at inducing cell death
RPE-mIL12-ks cells [6]
  cytotoxicity at 0.01 µM: 99%
[7]; 0.4 mg/mL AP1903, healthy mice
  time for encapsulated IL2-ks cells to respond to AP1903: less than 16 hours
[7]; Mus musculus, ip, read-out: viability of explanted capsules (live)
  viability at 400 µg/mL: < 10%
